Results: patent US20110256068A1, “CONTRAST MEDIA COMPOSITIONS” (priority 2009, published 2011)

Assay: Viscosity at 20° C. by U-tube time of fall technique
Type: physicochemical
Settings: 350 mgl/ml solution, 10 mM Tris, EDTA 0.1 mg/ml
Protocol: The obtained iodine concentration was 356 mgl/ml. The viscosity was determined to 28.7 mPas at 20° C. The osmolality was determined to 295 mOsm/kg.
a) Preparation of a 350 mgl/ml solution of IIIa containing 10 mM Tris and EDTA (0.1 mg/ml)
(§1) To a calibrated flask with a volume of 99.655 ml was added 71.174 g IIIa (water content 2.03%), 153 mg Trizma preset crystals (pH 7.3) and 10 mg EDTA disodium dihydrate followed by 67.330 g Milli-Q water. The mixture was brought to clear solution by intermittent agitation, gentle heating and sonication.
The clear solution with pH=6.95 was filtered through a Millipore Sterivex 0.22 um filter.
b) Preparation of a 350 mgl/ml solution of iopamidol containing 10 mM Tris and EDTA (0.1 mg/ml)
as §1, with “72.429” for “71.174”, “iopamidol” for “IIIa”, “1.7%), 157” for “2.03%), 153”, “66.309” for “67.330”
The clear solution with pH=6.85 was filtered through a Millipore Sterivex 0.22 um filter.
c) The two solutions from a) and b) were mixed in different proportions according to Table 1. After thorough mixing, the viscosity was determined at 20° C. using conventional U-tube time of fall technique.

Viscosity at 20° C. (100% IIIa / 0% iopamidol by volume) [mPas] | Viscosity at 20° C. (0% IIIa / 100% iopamidol by volume) [mPas] | Structure (SMILES)
42.9 |  | O=CN(CC(O)CN(C=O)c1c(I)c(C(=O)NCC(O)CO)c(I)c(C(=O)NCC(O)CO)c1I)c1c(I)c(C(=O)NCC(O)CO)c(I)c(C(=O)NCC(O)CO)c1I (centres unmarked) [IIIa, 5,5′-(2-hydroxypropane-1,3-diyl)bis(formylazanediyl)bis(N^1,N^3-bis(2,3-dihydroxypropyl)-2,4,6-triiodoisophthalamide)]
 | 15.8 | C[C@H](O)C(=O)Nc1c(I)c(C(=O)NC(CO)CO)c(I)c(C(=O)NC(CO)CO)c1I [iopamidol]
